molecular target: T1, IDO1 (Homo sapiens, UniProt P14902); assay: Cell-based (HeLa) assay for measurement of IDO1 inhibition (kynurenine levels in supernatant after IFNγ induction); details: H1-HeLa cells, IFNγ-induced IDO1, 48 hour incubation, kynurenine absorbance at 480 nm; geometric mean of a minimum of four determinations
T1 construct: HeLa cells were treated with a test compound in the presence of IFNγ, which induces IDO1 expression; endogenous in cells; host or cells: H1-HeLa cells (ATCC #CRL-1958), induced with IFNγ
T1 sequence (P14902 whole entry): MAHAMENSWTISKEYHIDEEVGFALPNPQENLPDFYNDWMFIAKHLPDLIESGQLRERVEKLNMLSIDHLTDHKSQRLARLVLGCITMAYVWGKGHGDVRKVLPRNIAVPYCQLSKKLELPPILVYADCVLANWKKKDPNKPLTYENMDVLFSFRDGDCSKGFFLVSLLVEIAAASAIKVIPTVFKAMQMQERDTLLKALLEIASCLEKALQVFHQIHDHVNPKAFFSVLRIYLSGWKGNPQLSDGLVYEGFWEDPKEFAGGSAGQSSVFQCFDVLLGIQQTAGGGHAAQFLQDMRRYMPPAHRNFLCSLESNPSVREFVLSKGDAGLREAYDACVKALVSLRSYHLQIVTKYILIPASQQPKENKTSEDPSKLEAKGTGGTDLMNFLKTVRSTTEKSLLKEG
How it was run: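 HeLa cells (1,250/well, DMEM/10% FBS) exposed to compound (0.5% DMSO) with IFNγ (added as 50 ng/mL solution) for 48 h. Supernatant kynurenine measured after TCA treatment (60 °C, 30 min) with p-dimethylaminobenzaldehyde, A480. EC50 from four-parameter fit normalised to ±IFNγ controls; geometric mean of ≥4 runs.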

| Structure (SMILES) | EC50 [nM] |
| --- | --- |
| Cc1ncc(-c2cccn3c(-c4cccc(Cl)c4F)ncc23)cc1C(=O)Nc1ccc(F)cc1 [Example 88] | 49.5 |
| Cc1ccc(-c2cccn3c(-c4cnnn4C)ncc23)cc1C(=O)Nc1ccc(F)cc1 [Example 3, N-(4-fluorophenyl)-2-methyl-5-(3-(1-methyl-1H-1,2,3-triazol-5-yl)imidazo[1,5-a]pyridin-8-yl)benzamide] | 2190 |
| Cc1ncc(-c2cccn3c(-c4cccc(F)c4F)ncc23)cc1C(=O)Nc1ccc(F)cc1 [Example 43, 5-(3-(2,3-difluorophenyl)imidazo[1,5-a]pyridin-8-yl)-N-(4-fluorophenyl)-2-methylnicotinamide] | 17.2 |
| Cc1ncc(-c2cccn3c(-c4ccccc4C(F)(F)F)ncc23)cc1C(=O)Nc1ccc(F)cc1 [Example 16, N-(4-fluorophenyl)-2-methyl-5-(3-(2-(trifluoromethyl)phenyl)imidazo[1,5-a]pyridin-8-yl)nicotinamide] | 239 |
| Cc1ncc(-c2cccn3c(-c4cccc(F)c4F)cnc23)cc1C(=O)Nc1ccc(Cl)cc1 [Example 61, N-(4-chlorophenyl)-5-(3-(2,3-difluorophenyl)imidazo[1,2-a]pyridin-8-yl)-2-methylnicotinamide] | 29.9 |
| Cc1ncc(-c2cccn3c(-c4ccc(F)cc4F)ncc23)cc1C(=O)Nc1ccc(F)cc1 [Example 89, 5-(3-(2,4-difluorophenyl)imidazo[1,5-a]pyridin-8-yl)-N-(4-fluorophenyl)-2-methylnicotinamide] | 30.6 |
| O=C(Nc1ccc(F)cc1)c1cc(-c2cccn3c(-c4ccnc5ccccc45)ncc23)ccc1C(F)(F)F [Example 21, N-(4-fluorophenyl)-5-(3-(quinolin-4-yl)imidazo[1,5-a]pyridin-8-yl)-2-(trifluoromethyl)benzamide] | 183 |
| Cc1ncc(-c2cccn3c(-c4cccc(F)c4F)ncc23)cc1C(=O)Nc1ccc(Cl)cc1F [Example 64, N-(4-chloro-2-fluorophenyl)-5-(3-(2,3-difluorophenyl)imidazo[1,5-a]pyridin-8-yl)-2-methylnicotinamide] | 24.3 |
| Cc1cccc(-c2ncc3c(-c4cnc(C)c(C(=O)Nc5ccc(F)cc5)c4)cccn23)c1 [Example 22, N-(4-fluorophenyl)-2-methyl-5-(3-(m-tolyl)imidazo[1,5-a]pyridin-8-yl)nicotinamide] | 135 |
| O=C(Nc1ccc(F)cc1)c1cc(-c2cccn3c(-c4ccncn4)ncc23)ccc1C(F)(F)F [Example 26, N-(4-fluorophenyl)-5-(3-(pyrimidin-4-yl)imidazo[1,5-a]pyridin-8-yl)-2-(trifluoromethyl)benzamide] | 66.4 |
| Cc1ncc(-c2cccn3c(-c4cccc(F)c4F)ncc23)cc1C(=O)Nc1ccc(C#N)c(C(F)(F)F)c1 [Example 59, N-(4-cyano-3-(trifluoromethyl)phenyI)-5-(3-(2,3-difluorophenyl)imidazo[1,5-a]pyridin-8-yl)-2-methylnicotinamide] | 227 |
| Cc1ncc(-c2cccn3c(-c4cccc(Cl)c4Cl)ncc23)cc1C(=O)Nc1ccc(F)cc1 [Example 86, 5-(3-(2,3-dichlorophenyl)imidazo[1,5-a]pyridin-8-yl)-N-(4-fluorophenyl)-2-methylnicotinamide] | 30.8 |
| Cc1ccc(-c2cccn3c(-c4nnco4)ncc23)cc1C(=O)Nc1ccc(F)cc1 [Example 7] | 1220 |
| Cc1ncc(-c2cccn3c(-c4cccc(F)c4F)nc(Br)c23)cc1C(=O)Nc1ccc(F)cc1 [Example 92, 5-(1-bromo-3-(2,3-difluorophenyl)imidazo[1,5-a]pyridin-8-yl)-N-(4-fluorophenyl)-2-methylnicotinamide] | 273 |
| O=C(Nc1ccc(F)cc1)c1cc(-c2cccn3c(-c4cccc(F)c4F)ncc23)ccc1C(F)(F)F [Example 48, 5-(3-(2,3-difluorophenyl)imidazo[1,5-a]pyridin-8-yl)-N-(4-fluorophenyl)-2-(trifluoromethyl)benzamide] | 15.9 |
| Cc1ncc(-c2cccn3c(-c4cccc(F)c4F)ncc23)cc1C(=O)Nc1ccc(OC(F)F)cc1 [Example 67, N-(4-(difluoromethoxy)phenyl)-5-(3-(2,3-difluorophenyl)imidazo[1,5-a]pyridin-8-yl)-2-methylnicotinamide] | 79.5 |
| Cc1ncc(-c2cccn3c(-c4cc(F)ccc4F)ncc23)cc1C(=O)Nc1ccc(F)cc1 [Example 30] | 39 |
| N#Cc1ccnc(-c2ncc3c(-c4ccc(C(F)(F)F)c(C(=O)Nc5ccc(F)cc5)c4)cccn23)c1 [Example 10, 5-(3-(4-cyanopyridin-2-yl)imidazo[1,5-a]pyridin-8-yl)-N-(4-fluorophenyl)-2-(trifluoromethyl)benzamide] | 712 |
